Data set [1] has as its system differentiation of bone marrow cell-derived macrophages (BMMs) into osteoclasts. As to the kind of experiment: Osteoclast differentiation of bone marrow cell-derived macrophages (M-CSF/RANKL, TRAP staining, osteoclast count). It is filed as cell-based, mice. The settings on record: compared with WEAR at the same concentration. The method, then: Specifically, bone marrow cells of mice were cultured in α-MEM medium containing M-CSF (60 ng/ml) and 10% FBS for 3 days to obtain bone marrow cell-derived macrophages (BMMs), which were used as osteoclast progenitor cells. To generate osteoclasts, 1×10^4 pieces of the obtained BMMs were placed in per well of a 96-well plate, cultured for 4 days in a medium containing M-CSF (60 ng/ml) and RANKL (50 ng/ml), and the BMM were treated with hot water extract of Agastache rugosa (WEAR; 10, 33, 100, 200 μg/ml) or ethanol extract of Agastache rugosa (EEAR; 10, 33, 100 μg/ml) under the same culture condition. After fixing the cells with 10% formalin, TRAP (Tartrate-resistant acid phosphatase) staining was performed using naphthol AS-MS phosphate and Fast red violet LB salt, and TRAP-positive cells having three or more nuclei (osteoclasts) were counted. Data are presented as mean±standard deviation, and statistical analysis was performed using one-way ANOVA with Dunnett test, **p<0.01.
IC50 (inhibitory concentration 50), the concentration showing 50% inhibition efficiency, was calculated using PraphPad Prism software.
Specifically, WEAR-PO, WEAR-ED, P0-3 kDA Fx, P0-10 kDA Fx, P0-30 kDA Fx, P0-100 kDA Fx, P0-300 kDA Fx […], respectively, and the osteoclast differentiation inhibitory effect was assessed in the same manner as in Example <3-1>.

Data set [2] has as its system bone marrow cell-derived macrophages (BMMs). As to the kind of experiment: Cell viability of osteoclast progenitor cells (CCK-8). The settings on record: 5 and 10 μg/ml, 2 days. It is filed as cell-based, mice. The method, then:
Specifically, 1.2×10^4 pieces of bone marrow cell-derived macrophages (BMMs) were placed in per well of a 96-well plate, and then cultured for 2 days in a medium containing M-CSF (60 ng/ […] ) in which hot water extract of Agastache rugosa extract (WEAR; 5, 10, 20, 33, 100 and 200 μg/ml), ethanol extract of Agastache rugosa (EEAR; 10, 33 and 100 μg/ml) or isoagastachoside (5 and 10 μg/ml) samples were added. Cell viability was determined by measuring absorbance at 450 nm using Cell counting Kit-8 (CCK-8, Dojindo Inc.), percentage of untreated controls and data are presented as mean±standard deviation, and statistical analysis was performed using one-way ANOVA with Dunnett test, **p<0.01.

Structures are written as SMILES.

On to `COc1ccc(-c2cc(=O)c3c(O)cc(O[C@@H]4O[C@H](CO)[C@@H](O)[C@H](O)[C@H]4OC(C)=O)cc3o2)cc1` [isoagastachoside], for which the “inhibitory effect on osteoclast differentiation (in words)” value in data set [1] (10 μg/ml) is recorded as “inhibited osteoclast differentiation very significantly compared to WEAR at the same concentration”; in data set [1] (5 and 10 μg/ml), “better inhibitory effect on osteoclast differentiation than WEAR at the same concentration”. The “effect on cell survival” value in data set [2] is on record as “no effect in cell survival”.
